Test results taken from PMC4685510, “A Cell Biologist’s Field Guide to Aurora Kinase Inhibitors” (Frontiers in Oncology, 2015).

Key:
Assay in all cases: biochemical
Format in all cases: biochemical
[1] = biological target: T1, 363 human kinases (including Aurora A/B/C) (Homo sapiens, UniProt O75385); conditions: ULK1; for remaining activity at 0.1 µM: 100 nM; for remaining activity at 0.1 µM / remaining activity at 0.5 µM: read-out: % Enzyme Activity (relative to DMSO controls)
T1 sequence (O75385 1-1050): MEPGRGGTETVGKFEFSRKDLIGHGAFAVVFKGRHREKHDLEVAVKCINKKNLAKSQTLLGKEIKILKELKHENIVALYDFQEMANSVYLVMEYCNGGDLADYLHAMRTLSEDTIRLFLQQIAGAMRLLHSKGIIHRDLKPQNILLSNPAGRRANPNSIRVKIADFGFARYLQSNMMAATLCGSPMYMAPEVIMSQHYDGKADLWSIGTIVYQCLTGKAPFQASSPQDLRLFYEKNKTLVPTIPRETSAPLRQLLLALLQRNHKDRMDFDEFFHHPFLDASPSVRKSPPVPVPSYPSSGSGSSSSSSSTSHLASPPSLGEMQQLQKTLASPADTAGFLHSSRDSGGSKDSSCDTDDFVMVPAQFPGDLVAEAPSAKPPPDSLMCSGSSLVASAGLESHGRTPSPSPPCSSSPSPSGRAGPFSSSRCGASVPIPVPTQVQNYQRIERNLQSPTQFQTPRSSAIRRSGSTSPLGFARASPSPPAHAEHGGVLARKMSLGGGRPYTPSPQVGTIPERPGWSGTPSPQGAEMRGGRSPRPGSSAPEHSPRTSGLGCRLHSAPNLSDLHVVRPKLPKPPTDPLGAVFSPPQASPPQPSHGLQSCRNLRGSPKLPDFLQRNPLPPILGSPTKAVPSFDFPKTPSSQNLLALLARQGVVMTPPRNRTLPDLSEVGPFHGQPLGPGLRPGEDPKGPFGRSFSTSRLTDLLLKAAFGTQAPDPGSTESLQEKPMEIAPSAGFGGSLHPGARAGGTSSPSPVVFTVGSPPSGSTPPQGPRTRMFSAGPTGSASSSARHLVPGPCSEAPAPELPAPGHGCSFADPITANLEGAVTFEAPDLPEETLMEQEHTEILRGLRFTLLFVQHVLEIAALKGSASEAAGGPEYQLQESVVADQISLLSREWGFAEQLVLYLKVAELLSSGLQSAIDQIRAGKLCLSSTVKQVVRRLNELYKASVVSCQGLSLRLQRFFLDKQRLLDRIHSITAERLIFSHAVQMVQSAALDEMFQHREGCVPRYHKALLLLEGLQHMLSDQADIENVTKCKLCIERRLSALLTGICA
From the text: (§1) However, the Aurora A/B selectivity ratios derived from our in vitro and in vivo data can be compared to prioritize inhibitors.

[2] = biological target: 363 human kinases (including Aurora A/B/C) (Homo sapiens, UniProt P53350); conditions: PLK1; for remaining activity at 0.1 µM: 100 nM; for remaining activity at 0.1 µM / remaining activity at 0.5 µM: read-out: % Enzyme Activity (relative to DMSO controls)
363 human kinases (including Aurora A/B/C) (Homo sapiens, UniProt P53350), sequence (P53350 whole entry): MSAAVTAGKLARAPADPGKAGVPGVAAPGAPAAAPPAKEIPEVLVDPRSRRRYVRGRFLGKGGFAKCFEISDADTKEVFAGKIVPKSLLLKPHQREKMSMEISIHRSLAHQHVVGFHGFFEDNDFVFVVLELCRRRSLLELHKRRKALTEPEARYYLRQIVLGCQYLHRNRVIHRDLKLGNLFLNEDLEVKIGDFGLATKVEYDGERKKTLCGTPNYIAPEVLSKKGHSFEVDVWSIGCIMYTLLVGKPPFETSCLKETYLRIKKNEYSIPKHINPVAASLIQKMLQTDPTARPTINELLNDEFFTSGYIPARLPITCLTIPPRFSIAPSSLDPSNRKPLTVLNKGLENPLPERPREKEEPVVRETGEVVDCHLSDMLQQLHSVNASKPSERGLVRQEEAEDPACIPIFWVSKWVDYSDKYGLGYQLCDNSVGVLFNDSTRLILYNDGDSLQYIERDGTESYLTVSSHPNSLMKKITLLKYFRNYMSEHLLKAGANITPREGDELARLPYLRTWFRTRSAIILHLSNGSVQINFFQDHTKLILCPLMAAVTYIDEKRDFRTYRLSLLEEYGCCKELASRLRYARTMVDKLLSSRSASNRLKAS
From the text: as §1

[3] = biological target: T2, 363 human kinases (including Aurora A/B/C) (Homo sapiens, UniProt Q05513); conditions: PKCzeta; for remaining activity at 0.1 µM: 100 nM; for remaining activity at 0.1 µM / remaining activity at 0.5 µM: read-out: % Enzyme Activity (relative to DMSO controls)
T2 sequence (Q05513 1-592): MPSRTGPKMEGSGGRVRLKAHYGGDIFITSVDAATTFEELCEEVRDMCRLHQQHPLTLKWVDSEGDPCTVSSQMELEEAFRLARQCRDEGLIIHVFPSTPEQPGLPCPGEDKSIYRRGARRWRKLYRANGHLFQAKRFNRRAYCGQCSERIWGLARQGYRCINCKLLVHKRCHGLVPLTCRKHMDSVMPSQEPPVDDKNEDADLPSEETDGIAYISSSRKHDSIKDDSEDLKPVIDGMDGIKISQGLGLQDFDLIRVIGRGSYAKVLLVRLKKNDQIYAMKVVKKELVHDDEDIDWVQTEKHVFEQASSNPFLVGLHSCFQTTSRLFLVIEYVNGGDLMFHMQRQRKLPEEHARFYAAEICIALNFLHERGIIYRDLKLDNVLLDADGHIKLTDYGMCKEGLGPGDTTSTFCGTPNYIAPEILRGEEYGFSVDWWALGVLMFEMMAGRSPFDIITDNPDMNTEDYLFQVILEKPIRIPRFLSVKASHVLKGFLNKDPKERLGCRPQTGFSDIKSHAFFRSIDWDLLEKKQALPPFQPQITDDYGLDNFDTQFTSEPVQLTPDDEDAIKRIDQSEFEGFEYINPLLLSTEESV
From the text: as §1

[4] = biological target: 363 human kinases (including Aurora A/B/C) (Homo sapiens, UniProt Q16539); conditions: P38a/MAPK14; for remaining activity at 0.1 µM: 100 nM; for remaining activity at 0.1 µM / remaining activity at 0.5 µM: read-out: % Enzyme Activity (relative to DMSO controls)
363 human kinases (including Aurora A/B/C) (Homo sapiens, UniProt Q16539), sequence (Q16539 whole entry): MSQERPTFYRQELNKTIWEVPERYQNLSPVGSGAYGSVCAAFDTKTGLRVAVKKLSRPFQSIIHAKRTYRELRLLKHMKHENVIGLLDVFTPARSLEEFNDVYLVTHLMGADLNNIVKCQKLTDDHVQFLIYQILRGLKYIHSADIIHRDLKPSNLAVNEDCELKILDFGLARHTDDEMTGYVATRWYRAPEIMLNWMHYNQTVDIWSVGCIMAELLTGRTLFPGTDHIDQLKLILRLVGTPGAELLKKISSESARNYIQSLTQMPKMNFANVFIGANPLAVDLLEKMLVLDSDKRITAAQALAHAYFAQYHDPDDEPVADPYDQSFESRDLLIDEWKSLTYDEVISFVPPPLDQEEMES
From the text: as §1

[5] = biological target: 363 human kinases (including Aurora A/B/C) (Homo sapiens, UniProt Q9Y243); conditions: AKT3, [ATP] 50 µM; for remaining activity at 0.1 µM: 100 nM; for remaining activity at 0.1 µM / remaining activity at 0.5 µM: read-out: % Enzyme Activity (relative to DMSO controls)
363 human kinases (including Aurora A/B/C) (Homo sapiens, UniProt Q9Y243), sequence (Q9Y243 whole entry): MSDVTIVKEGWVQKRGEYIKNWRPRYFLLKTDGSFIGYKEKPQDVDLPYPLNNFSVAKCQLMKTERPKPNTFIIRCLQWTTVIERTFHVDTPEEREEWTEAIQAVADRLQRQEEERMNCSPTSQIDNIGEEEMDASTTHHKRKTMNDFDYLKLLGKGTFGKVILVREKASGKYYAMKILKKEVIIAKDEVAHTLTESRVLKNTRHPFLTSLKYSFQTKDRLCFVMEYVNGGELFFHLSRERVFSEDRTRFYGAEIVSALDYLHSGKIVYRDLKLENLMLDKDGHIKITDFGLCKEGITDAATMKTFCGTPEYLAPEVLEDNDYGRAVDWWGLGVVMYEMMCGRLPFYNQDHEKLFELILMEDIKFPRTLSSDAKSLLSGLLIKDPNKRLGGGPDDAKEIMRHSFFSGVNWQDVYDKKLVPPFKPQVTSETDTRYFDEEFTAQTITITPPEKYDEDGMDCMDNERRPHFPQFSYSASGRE
From the text: as §1

[6] = biological target: 363 human kinases (including Aurora A/B/C) (Homo sapiens, UniProt P43250); conditions: GRK6; for remaining activity at 0.1 µM: 100 nM; for remaining activity at 0.1 µM / remaining activity at 0.5 µM: read-out: % Enzyme Activity (relative to DMSO controls)
363 human kinases (including Aurora A/B/C) (Homo sapiens, UniProt P43250), sequence (P43250 whole entry): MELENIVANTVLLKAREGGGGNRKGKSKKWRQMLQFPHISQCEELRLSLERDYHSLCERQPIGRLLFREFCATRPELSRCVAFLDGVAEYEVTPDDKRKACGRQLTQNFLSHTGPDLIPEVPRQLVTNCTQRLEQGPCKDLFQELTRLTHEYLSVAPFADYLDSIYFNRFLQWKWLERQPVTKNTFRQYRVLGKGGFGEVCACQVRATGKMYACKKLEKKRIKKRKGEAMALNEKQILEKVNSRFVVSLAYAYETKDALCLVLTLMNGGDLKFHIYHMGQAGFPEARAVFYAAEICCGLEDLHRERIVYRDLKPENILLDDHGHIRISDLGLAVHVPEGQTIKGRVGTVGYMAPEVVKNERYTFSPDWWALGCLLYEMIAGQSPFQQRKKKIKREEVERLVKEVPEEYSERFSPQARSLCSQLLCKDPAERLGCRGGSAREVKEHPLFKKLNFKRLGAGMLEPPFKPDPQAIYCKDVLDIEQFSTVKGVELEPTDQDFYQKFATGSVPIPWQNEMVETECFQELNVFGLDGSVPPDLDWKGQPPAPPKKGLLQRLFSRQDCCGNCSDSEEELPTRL
From the text: as §1

[7] = biological target: 363 human kinases (including Aurora A/B/C) (Homo sapiens, UniProt P37023); conditions: ALK1/ACVRL1, [ATP] 100 µM; for remaining activity at 0.1 µM: 100 nM; for remaining activity at 0.1 µM / remaining activity at 0.5 µM: read-out: % Enzyme Activity (relative to DMSO controls)
363 human kinases (including Aurora A/B/C) (Homo sapiens, UniProt P37023), sequence (P37023 22-503): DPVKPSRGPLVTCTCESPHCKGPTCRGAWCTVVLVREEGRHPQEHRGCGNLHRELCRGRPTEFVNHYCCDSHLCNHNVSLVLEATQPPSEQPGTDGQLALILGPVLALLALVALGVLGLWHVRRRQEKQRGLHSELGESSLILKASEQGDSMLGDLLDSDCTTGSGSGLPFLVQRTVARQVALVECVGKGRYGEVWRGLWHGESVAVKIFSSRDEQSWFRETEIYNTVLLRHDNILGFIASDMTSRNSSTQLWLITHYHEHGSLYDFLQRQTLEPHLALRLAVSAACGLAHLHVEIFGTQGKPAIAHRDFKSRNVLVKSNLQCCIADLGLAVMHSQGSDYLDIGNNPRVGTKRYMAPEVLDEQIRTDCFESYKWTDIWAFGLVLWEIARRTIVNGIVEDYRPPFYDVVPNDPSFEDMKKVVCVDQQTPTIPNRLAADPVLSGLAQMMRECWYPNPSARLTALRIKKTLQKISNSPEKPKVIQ
From the text: as §1

[8] = biological target: T3, 363 human kinases (including Aurora A/B/C) (Homo sapiens, UniProt O15530); conditions: PDK1/PDPK1; for remaining activity at 0.1 µM: 100 nM; for remaining activity at 0.1 µM / remaining activity at 0.5 µM: read-out: % Enzyme Activity (relative to DMSO controls)
T3 sequence (O15530 1-556): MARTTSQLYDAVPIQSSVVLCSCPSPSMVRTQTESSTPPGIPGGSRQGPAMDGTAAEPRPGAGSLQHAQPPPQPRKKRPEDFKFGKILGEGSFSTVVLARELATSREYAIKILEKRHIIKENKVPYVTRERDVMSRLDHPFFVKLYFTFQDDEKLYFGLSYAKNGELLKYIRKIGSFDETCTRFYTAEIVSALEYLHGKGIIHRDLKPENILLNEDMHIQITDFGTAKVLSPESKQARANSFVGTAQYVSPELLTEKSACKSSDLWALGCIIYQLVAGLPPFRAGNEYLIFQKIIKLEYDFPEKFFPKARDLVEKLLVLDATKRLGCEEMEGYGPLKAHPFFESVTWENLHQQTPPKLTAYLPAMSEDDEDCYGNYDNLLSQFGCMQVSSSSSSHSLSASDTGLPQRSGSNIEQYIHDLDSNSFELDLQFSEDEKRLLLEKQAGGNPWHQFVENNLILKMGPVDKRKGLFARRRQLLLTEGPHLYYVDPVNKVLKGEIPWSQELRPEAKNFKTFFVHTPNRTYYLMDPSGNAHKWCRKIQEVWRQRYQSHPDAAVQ
From the text: as §1

[9] = biological target: 363 human kinases (including Aurora A/B/C) (Homo sapiens, UniProt Q15759); conditions: P38b/MAPK11; for remaining activity at 0.1 µM: 100 nM; for remaining activity at 0.1 µM / remaining activity at 0.5 µM: read-out: % Enzyme Activity (relative to DMSO controls)
363 human kinases (including Aurora A/B/C) (Homo sapiens, UniProt Q15759), sequence (Q15759 whole entry): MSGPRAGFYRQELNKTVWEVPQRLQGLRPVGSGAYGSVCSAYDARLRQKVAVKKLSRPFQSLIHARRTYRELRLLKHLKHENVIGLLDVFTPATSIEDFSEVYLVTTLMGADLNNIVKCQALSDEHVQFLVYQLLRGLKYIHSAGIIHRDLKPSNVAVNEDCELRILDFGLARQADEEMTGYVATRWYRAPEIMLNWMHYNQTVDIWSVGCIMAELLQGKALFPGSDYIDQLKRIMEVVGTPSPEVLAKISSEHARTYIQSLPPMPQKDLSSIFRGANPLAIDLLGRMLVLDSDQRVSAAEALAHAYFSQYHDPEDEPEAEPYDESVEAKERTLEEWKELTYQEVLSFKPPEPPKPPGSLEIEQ
From the text: as §1

[10] = biological target: 363 human kinases (including Aurora A/B/C) (Homo sapiens, UniProt Q6P5Z2); conditions: PKN3/PRK3; for remaining activity at 0.1 µM: 100 nM; for remaining activity at 0.1 µM / remaining activity at 0.5 µM: read-out: % Enzyme Activity (relative to DMSO controls)
363 human kinases (including Aurora A/B/C) (Homo sapiens, UniProt Q6P5Z2), sequence (Q6P5Z2 whole entry): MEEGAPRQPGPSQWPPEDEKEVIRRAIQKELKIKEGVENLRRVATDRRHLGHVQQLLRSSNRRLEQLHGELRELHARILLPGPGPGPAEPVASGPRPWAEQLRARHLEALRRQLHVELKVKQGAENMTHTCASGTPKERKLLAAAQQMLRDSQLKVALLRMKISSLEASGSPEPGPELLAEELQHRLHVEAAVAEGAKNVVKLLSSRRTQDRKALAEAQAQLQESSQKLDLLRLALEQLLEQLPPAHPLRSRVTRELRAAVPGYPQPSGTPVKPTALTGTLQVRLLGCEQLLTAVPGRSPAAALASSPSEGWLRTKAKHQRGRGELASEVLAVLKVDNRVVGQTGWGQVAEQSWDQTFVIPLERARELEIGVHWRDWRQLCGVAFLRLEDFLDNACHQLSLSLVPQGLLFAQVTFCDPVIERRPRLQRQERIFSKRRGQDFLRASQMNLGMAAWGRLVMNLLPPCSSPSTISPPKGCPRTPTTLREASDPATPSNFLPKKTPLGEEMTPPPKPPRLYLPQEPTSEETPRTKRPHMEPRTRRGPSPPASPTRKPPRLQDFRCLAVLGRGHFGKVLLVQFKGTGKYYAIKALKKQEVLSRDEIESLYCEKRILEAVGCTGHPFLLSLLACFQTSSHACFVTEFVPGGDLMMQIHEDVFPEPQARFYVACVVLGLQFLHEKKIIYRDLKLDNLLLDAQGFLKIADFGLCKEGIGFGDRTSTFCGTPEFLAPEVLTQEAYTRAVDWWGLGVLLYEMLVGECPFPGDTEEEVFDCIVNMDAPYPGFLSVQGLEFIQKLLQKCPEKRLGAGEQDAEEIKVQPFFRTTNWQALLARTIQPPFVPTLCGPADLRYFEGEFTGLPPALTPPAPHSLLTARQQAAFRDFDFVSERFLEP
From the text: as §1

Row | SMILES | remaining activity at 0.1 µM [1] | remaining activity at 0.1 µM [2] | remaining activity at 0.1 µM [3] | remaining activity at 0.1 µM [4] | remaining activity at 0.1 µM [5] | remaining activity at 0.1 µM [6] | remaining activity at 0.1 µM [7] | remaining activity at 0.1 µM [8] | remaining activity at 0.1 µM [9] | remaining activity at 0.1 µM [10] | remaining activity at 0.5 µM ([1]; 500 nM) | remaining activity at 0.5 µM ([2]; 500 nM) | remaining activity at 0.5 µM ([3]; 500 nM) | remaining activity at 0.5 µM ([4]; 500 nM) | remaining activity at 0.5 µM ([5]; 500 nM) | remaining activity at 0.5 µM ([6]; 500 nM) | remaining activity at 0.5 µM ([7]; 500 nM) | remaining activity at 0.5 µM ([8]; 500 nM) | remaining activity at 0.5 µM ([9]; 500 nM) | remaining activity at 0.5 µM ([10]; 500 nM) | also measured
1 | CCn1cc(-c2ccnc3[nH]c(-c4cccc(CN(C)C)c4)cc23)c(-c2ccc(NC(=O)N(C)C)cc2)n1 [GSK1070916] | 111% | 96.5% | 106% | 93.6% | 94.8% | 106% | 98.2% | 94% | 94.3% | 107% |  |  |  |  |  |  |  |  |  |  | 
2 | O=C(O)[C@]1(Cc2cccc(Nc3nccs3)n2)CC[C@@H](Oc2cccc(Cl)c2F)CC1 [MK-5108] | 107% | 101% | 99.2% | 95.2% | 97.4% | 104% | 51.3% | 98.7% | 102% | 90.8% | 104% | 100% | 99.2% | 101% | 99.1% | 101% | 36.5% | 88.8% | 96% | 88.2% | 
3 | O=C(c1cccc(Cl)c1F)N1CCN(Cc2cccc(Nc3nccs3)n2)CC1 [MK-8745] |  |  |  |  |  |  |  |  |  |  | 93.8% | 95.1% | 97.1% | 95.3% | 98.6% | 100% | 75.1% | 94.7% | 93.2% | 100% | % Enzyme Activity (relative to DMSO controls) ([1]; 500 nM): 92.67%; % Enzyme Activity (relative to DMSO controls) ([2]; 500 nM): 94.27%; % Enzyme Activity (relative to DMSO controls) ([3]; 500 nM): 96.81%; % Enzyme Activity (relative to DMSO controls) ([4]; 500 nM): 95.14%; % Enzyme Activity (relative to DMSO controls) ([5]; 500 nM): 98.52%; % Enzyme Activity (relative to DMSO controls) ([6]; 500 nM): 98.74%; % Enzyme Activity (relative to DMSO controls) ([7]; 500 nM): 71.54%; % Enzyme Activity (relative to DMSO controls) ([8]; 500 nM): 93.63%; % Enzyme Activity (relative to DMSO controls) ([9]; 500 nM): 92.96%; % Enzyme Activity (relative to DMSO controls) ([10]; 500 nM): 100.01%
